The subject of assay [1] is U-2 OS. The experiment in a line: cell viability (CellTiter-Glo) relative to DMSO (% of control); higher = more viable. Conditions: 24 h. As to the method:
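Cell viability of U-2 OS cells by CellTiter-Glo after 24 h compound treatment at 5, 10 and 20 uM (some at 40 and 80 uM), measured in parallel with the glutathione assay, as percent of DMSO control. Five technical replicate plates, averaged.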
On the technique in general: Cellular ATP, detected with luciferase, serves as a proxy for viable cell number.

The subject of assay [2] is U-2 OS. The experiment in a line: relative cell count vs DMSO (cell painting) (fraction of DMSO control); higher = more cells remaining (less cytotoxic). The settings on record: 24 h. Put shortly: (§1)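 Using 384-well plates holding about 1,500 U-2 OS cells per well, treatment was applied by pin tool for 24 h at 37 °C, generally at six 2-fold concentrations ranging from 20 μM to 625 nM. Staining with MitoTracker, concanavalin A, phalloidin, wheat germ agglutinin, Hoechst and SYTO 14 preceded Opera Phenix imaging and CellProfiler feature extraction against DMSO cells on the same plate. Activity score and cell count are both referenced to DMSO wells, the former as a Mahalanobis distance. Four replicate plates were averaged for every value.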

For assay [3], the system named is U-2 OS. The experiment in a line: cell painting activity score (Mahalanobis distance from DMSO wells); higher = stronger morphological phenotype. The settings on record: 24 h. Put shortly:
as §1

Assay [4] has as its system U-2 OS. The experiment in a line: total intracellular glutathione (GSH + GSSG) relative to DMSO (% of control); higher = more glutathione. Conditions: 24 h. As to the method:
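Total intracellular glutathione (GSH + GSSG) in U-2 OS cells by GSH/GSSG-Glo after 24 h compound treatment at 5, 10 and 20 uM (some at 40 and 80 uM), as percent of DMSO control. Five technical replicate plates, averaged.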

The subject of assay [5] is U-2 OS. The experiment in a line: intracellular GSH:GSSG ratio (calculated); higher = more reduced glutathione pool. The settings on record: 24 h. As to the method:
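Intracellular glutathione in U-2 OS cells after 24 h compound treatment at 5, 10 and 20 uM (some at 40 and 80 uM). Total glutathione and GSSG were measured with the GSH/GSSG-Glo kit, and the GSH:GSSG ratio was calculated. Mean of five technical replicate plates.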

The test system of assay [6] is U-2 OS. The experiment in a line: AUC of culture confluence over time (live-cell imaging) (AUC (confluence % x time)); higher = more confluent culture (less growth inhibition). Put shortly: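 Using an Incucyte S3 with a 10x objective, confluence of U-2 OS cells was imaged every 4 h for up to 60 h at 37 °C. The cells had been seeded at 750 per well in 384-well plates in F-12K medium with 10% FBS and treated by pin tool 24 h later, most compounds at 20, 10 and 5 μM with 0.2% DMSO. The value given is the area under the confluence-versus-time curve.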

These results are taken from the supplement of paper PMC10011410.

± gives the standard deviation of the averaged measurements.

For the molecule `CN(C)C/C=C/C(=O)Nc1cc2c(Nc3ccc(F)c(Cl)c3)ncnc2cc1O[C@H]1CCOC1`, the figures for the cell viability with U-2 OS [1] (5 µM), with U-2 OS [1] (10 µM) and in the assay on U-2 OS [1] (20 µM) were 63 ± 4, 52.4 ± 3.5 and 47.2 ± 2.5, respectively. In addition, the relative cell count in the assay on U-2 OS [2] (0.625 µM) was determined as 0.955; in the assay on U-2 OS [2] (1.25 µM), 0.955; in the assay with U-2 OS [2] (2.5 µM) it was 0.877; in the assay on U-2 OS [2] (5 µM), 0.894; with U-2 OS [2] (10 µM), 0.538; in the assay on U-2 OS [2] (20 µM), 0.275. Further, the “cell painting activity score” value in the assay on U-2 OS [3] (0.625 µM) stood at 8.62; with U-2 OS [3] (1.25 µM), 12.1; in the assay with U-2 OS [3] (2.5 µM), 12.2; in the assay on U-2 OS [3] (5 µM) it was 11.2; in the assay on U-2 OS [3] (10 µM), 12.6; with U-2 OS [3] (20 µM), 18.5. In addition, the total intracellular glutathione in the assay on U-2 OS [4] (5 µM) is 101 ± 4.4; in the assay with U-2 OS [4] (10 µM), 110 ± 3.7; in the assay on U-2 OS [4] (20 µM), 105 ± 2.6.

Regarding `C=CC(=O)Nc1cc2c(Nc3ccc(F)c(Cl)c3)ncnc2cc1OC`, the figures for the cell viability with U-2 OS [1] (5 µM), with U-2 OS [1] (10 µM) and in the assay on U-2 OS [1] (20 µM) were 93.5 ± 3.4, 91.9 ± 1.7 and 86.5 ± 2.2, respectively. For the same molecule, the relative cell count in the assay with U-2 OS [2] (0.625 µM) turned out to be 1.02; in the assay on U-2 OS [2] (1.25 µM) it was 1.06; in the assay on U-2 OS [2] (2.5 µM) it was 1.05; in the assay with U-2 OS [2] (5 µM), 0.989; in the assay on U-2 OS [2] (10 µM), 1; in the assay with U-2 OS [2] (20 µM), 0.992. In addition, the “cell painting activity score” value in the assay on U-2 OS [3] (0.625 µM) worked out at 5.64; in the assay with U-2 OS [3] (1.25 µM), 6.77; in the assay with U-2 OS [3] (2.5 µM), 6.2; in the assay on U-2 OS [3] (5 µM), 7.6; in the assay with U-2 OS [3] (10 µM), 7.34; in the assay with U-2 OS [3] (20 µM), 7.33. The “intracellular GSH:GSSG ratio” value with U-2 OS [5] (5 µM) was 19.9; in the assay with U-2 OS [5] (10 µM), 24.8; in the assay on U-2 OS [5] (20 µM) it was 20.5. Further, the total intracellular glutathione in the assay with U-2 OS [4] (5 µM) was 99.7 ± 5.3; in the assay with U-2 OS [4] (10 µM), 96.6 ± 3.8; in the assay on U-2 OS [4] (20 µM) it was 94.5 ± 4.3.

As to `CC(Cc1ccc(O)c(O)c1)C(C)Cc1ccc(O)c(O)c1` (stereo unspecified), the cell viability in the assay on U-2 OS [1] (5 µM) worked out at 101 ± 4; in the assay with U-2 OS [1] (10 µM), 104 ± 8.2; in the assay on U-2 OS [1] (20 µM), 100 ± 5.4; in the assay with U-2 OS [1] (40 µM), 87.1 ± 6.5; in the assay with U-2 OS [1] (80 µM) it was 0.624 ± 0.073. Also, the relative cell count with U-2 OS [2] (0.625 µM) was 0.839; in the assay on U-2 OS [2] (1.25 µM), 0.852; in the assay with U-2 OS [2] (2.5 µM), 0.896; with U-2 OS [2] (5 µM), 0.816; in the assay on U-2 OS [2] (10 µM), 0.835; with U-2 OS [2] (20 µM) it was 0.359. For the same molecule, the results for the relative cell count with U-2 OS [2] (40 µM) and in the assay on U-2 OS [2] (80 µM) were 0.261 and 0.228, respectively. Further, the “cell painting activity score” value was 4.39 with U-2 OS [3] (0.625 µM); 8.68 in the assay with U-2 OS [3] (1.25 µM); 11.8 in the assay on U-2 OS [3] (2.5 µM); 13.1 in the assay on U-2 OS [3] (5 µM); 15.4 in the assay on U-2 OS [3] (10 µM); 12.1 with U-2 OS [3] (20 µM). Besides, the “cell painting activity score” value with U-2 OS [3] (40 µM) came to 17.4; in the assay with U-2 OS [3] (80 µM) it was 22.6. Further, the “intracellular GSH:GSSG ratio” value in the assay with U-2 OS [5] (5 µM) was 24; with U-2 OS [5] (10 µM), 47.5; with U-2 OS [5] (20 µM) it was 22.3; with U-2 OS [5] (40 µM), 22.5. Further, the “AUC of culture confluence over time” value stood at 42.1 with U-2 OS [6] (5 µM); 39.8 in the assay on U-2 OS [6] (10 µM); 43.8 in the assay with U-2 OS [6] (20 µM); 28.7 in the assay on U-2 OS [6] (40 µM); 19.1 in the assay with U-2 OS [6] (80 µM).

`CC1=CC(=O)c2ccccc2C1=O`: the cell viability with U-2 OS [1] (5 µM) was 40 ± 5.8; with U-2 OS [1] (10 µM) it was 1.01 ± 0.2; in the assay with U-2 OS [1] (20 µM), 1.22 ± 0.21; in the assay on U-2 OS [1] (40 µM) it was 1.15 ± 0.15; in the assay on U-2 OS [1] (80 µM) it was 0.692 ± 0.12. The relative cell count with U-2 OS [2] (0.625 µM) was 0.971; with U-2 OS [2] (1.25 µM), 0.921; in the assay with U-2 OS [2] (2.5 µM), 0.979; in the assay on U-2 OS [2] (5 µM), 0.89; with U-2 OS [2] (10 µM), 0.643; in the assay on U-2 OS [2] (20 µM), 0.277. For the same molecule, the “cell painting activity score” value with U-2 OS [3] (0.625 µM) worked out at 4.82; in the assay on U-2 OS [3] (1.25 µM), 3.53; in the assay with U-2 OS [3] (2.5 µM), 4.48; in the assay with U-2 OS [3] (5 µM) it was 6.92; in the assay with U-2 OS [3] (10 µM), 10.5; in the assay with U-2 OS [3] (20 µM) it was 17.1. For the same molecule, the “intracellular GSH:GSSG ratio” value was 17.1 with U-2 OS [5] (5 µM); 2.21 in the assay with U-2 OS [5] (10 µM); 1.63 in the assay with U-2 OS [5] (20 µM); 0.957 with U-2 OS [5] (40 µM); 2.69 in the assay on U-2 OS [5] (80 µM). The total intracellular glutathione turned out to be 36.9 ± 4.5 in the assay on U-2 OS [4] (5 µM); 4.53 ± 0.61 in the assay with U-2 OS [4] (10 µM); 3.31 ± 0.24 in the assay with U-2 OS [4] (20 µM); 2.94 ± 0.44 with U-2 OS [4] (40 µM); 2.93 ± 0.45 with U-2 OS [4] (80 µM).
